Consider one compound from PMC12491701, “Discovery of an APP-selective BACE1 inhibitor for Alzheimer's disease” (Neurotherapeutics, 2025).

Data set [1] in a line: Brain tissue binding assay. It is filed as in vitro ADME, mouse. Conditions: brain homogenate, 2 µM compound. The procedure: The […]
KIAM = (tr – t0) / t0; Pm = (KIAM / MW4) x 1010
Compounds with a Pm >0.85 are predicted to be BBB permeable (CNS+) at pH 7.4.
Brain Tissue Binding Assay
Brain tissue was homogenized in PBS (pH 7.4) (1: 3 weight(mg)/volume(µL)) and the protein concentration determined using the Micro BCA™ Pr otein Assay Kit (Thermo Fisher Scientific, Cat#23235). Brain homogenate was diluted to 20 mg/mL in PBS (pH 7.4) and added to Slide-A-Lyzer™ MINI Dialysis Devices, 10K MWCO dialysis cups (Thermo Fisher Scientific, Cat#PI88401) in a 48-well plate containing PBS (500 µL; pH 7.4). 1 µL of 1 mM compound was added to the brain homogenate (final concentration: 2 µM compound, 0.5% DMSO) and incubated on a rocker for 4.5 hours at 37 °C. 50 µL of brain homogenate (within the dialysis cup) and PBS (within the 48-well plate) were transferred to new microcentrifuge tubes containing 200 µL of quenching reagent (100% acetonitrile) containing internal standard. Solutions were clarified by centrifugation (16,000 x g, 5 min) and the supernatants were transferred to new tubes and lyophilized. Samples were reconstituted in 100 µL of 50/50/0.1 (Water/Acetonitrile/Formic Acid) prior to analysis via LC-MS/MS.
The % of the unbound drug was calculated using the following equation: fubound = [normalized peak area in buffer side / normalized peak area in brain side] x 100

Data set [2] in a line: Pilot PK of FAH65 vs. verubecestat in rats. It is filed as in vivo, rat. The note with it: oral gavage, 30 mg/kg.
The target in a further data set is T1, cathepsin D (CatD) (Homo sapiens, UniProt P07339).
T1 construct: purchased R&D Systems 1014-AS
In words: Cathepsin D activity assay. It is filed as biochemical. The protocol:
The effects of candidate ASBIs on cathepsin D (CatD) activity was assessed using the R&D Systems CatD activity assay kit (Catalog #: 1014-AS and ES001) according to the manufacturer's instructions. For the assay, 4 μL of assay buffer was added to each well, followed by 2 μL of CatD diluted in assay buffer to 5 ng/uL. Then, 2 μL of inhibitor, at concentrations along an 11 pt. two-fold dilution series starting at 50 μM, were added to appropriated wells and incubated for 30 min at room temperature. For all dilutions of inhibitor, drug stock solutions of 10 mM in DMSO were diluted to 50 μM in water; subsequent dilutions were in 2.5 % DMSO. Afterwards, 2 μL of fluorogenic CatD substrate, diluted to 50 μM in assay buffer, were added to each well, after which the signal generated was read every 30 min at 25 °C for 1hr.

The next data set is described as follows: Pharmacokinetics in mice. The note with it: mice. It counts as in vivo, mouse. The protocol:
Wildtype or non-transgenic (NTg) C57Bl6 mice or Sprague-Dawley rats were dosed by oral (gavage) or subcutaneous (SQ) injection at 10 or 30 mg/kg, and animals were euthanized 1, 2, 6, and 8 h after administration by ketamine/xylazine over-anesthesia, in rats, CSF was also collected, followed by transcardial collection of blood for isolation of plasma and saline perfusion. Brain tissue was collected post-mortem for assessment of compound levels and biomarkers.
Analyses of compound levels in PK studies were performed in the UCLA Pasarow Mass Spectrometry Lab (PMSL; Julian Whitelegge, Ph.D., Director). Tissues were homogenized in a bead beater using 5 vol of ice-cold 80 % acetonitrile (1/5; mg of brain/μL of 80 % ACN). Plasma analytes were extracted using 4 vol of ice-cold acetonitrile (1/4; μL of plasma/μL of 100 % ACN). Solutions were clarified by centrifugation (16,000×g, 5 min) and the supernatants were transferred to new tubes and lyophilized. Samples were reconstituted in 100 μL of 50/50/0.1 (Water/Acetonitrile/Formic Acid) prior to analysis via liquid chromatography-tandem mass spectrometry (LC-MS/MS).
An internal standard (IS) was added to every sample to account for compound loss during sample processing. Standards were made in drug naïve plasma and tissue lysates with increasing amounts of analyte (S1, S2: 0 pmol/S3, S4: 1 pmol/S5, S6: 10 pmol/S7, S8: 100 pmol, S9, S10: 1000 pmol). The standard curve was made by plotting the known amount of analyte per standard vs. the ratio of measured chromatographic peak areas corresponding to the analyte over that of the IS (analyte/IS). The trendline equation was then used to calculate the absolute concentrations of each compound in plasma and tissue.
The targeted LC-MS/MS assay was developed using the multiple reaction monitoring (MRM) acquisition method on a 6460 triple quadrupole mass spectrometer (Agilent Technologies) coupled to a 1290 Infinity HPLC system (Agilent Technologies) with a Phenomenex analytical column (Kinetex 1.7 μm C18 100 Å 100 × 2.1 mm). The HPLC method utilized a mixture of solvent A (99.9/0.1 Water/Formic Acid) and solvent B (99.9/0.1 Acetonitrile/Formic Acid) and a gradient was use for the elution of the compounds (min/%B: 0/1, 3/1, 19/99, 20/1, 30/1). Two fragment ions were monitored at specific LC retention times to ensure specificity and accurate quantification in the complex biological samples. The normalized chromatographic peak areas were determined by taking the ratio of measured chromatographic peak areas corresponding to the compound over that of the internal standard (Analyte/IS).
The Tmax, Cmax, brain-to-plasma ratios and brain levels were then calculated using PK Solutions software (SummitPK).

T1 sequence (P07339 65-412): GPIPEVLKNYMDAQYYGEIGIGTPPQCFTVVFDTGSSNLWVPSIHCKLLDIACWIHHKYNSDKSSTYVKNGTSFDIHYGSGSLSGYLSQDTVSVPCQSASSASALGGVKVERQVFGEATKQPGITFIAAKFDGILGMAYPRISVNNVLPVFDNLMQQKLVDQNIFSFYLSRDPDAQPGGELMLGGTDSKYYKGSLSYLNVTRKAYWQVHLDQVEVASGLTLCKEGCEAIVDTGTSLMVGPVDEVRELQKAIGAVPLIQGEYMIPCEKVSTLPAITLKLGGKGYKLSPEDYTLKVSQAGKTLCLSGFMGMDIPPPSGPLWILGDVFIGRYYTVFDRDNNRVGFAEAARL

As usually defined, the Cmax is the maximum level reached in the sampled fluid or tissue. As a reminder, the IC50 is the concentration needed to halve the response being measured. Consider `Cc1cc(C2(c3cccc(-c4cncnc4)c3)N=C(N)N(C)C2=O)ccc1OC(F)F` (stereo not drawn) [FAH65], for which, in data set [1], the “Brain tissue binding, funbound” value turned out to be 3.1%. Also, the Cmax in data set [2] (both sexes, Sprague-Dawley, rat, brain) was 182 ng/g; in “Pharmacokinetics in mice” (C57Bl6, mouse, plasma, oral, 30 mg/kg), ~50 ng/mL. Besides, the “time of brain Cmax” value in data set [2] came to 2 h; in the data set “Pharmacokinetics in mice” (oral, 30 mg/kg), 1 h. For the same compound, the “inhibition of cathepsin D activity” value at cathepsin D (CatD) (in words) is on record as “Neither analog significantly inhibited”. At cathepsin D (CatD) (read-out: Cat D IC50), the half-maximal inhibitory concentration (IC50) is ~47 µM. Further, the “brain Cmax” value in “Pharmacokinetics in mice” (oral, 30 mg/kg) stood at 74 ng/g. The “compound levels in plasma” value in “Pharmacokinetics in mice” (subcutaneous (SQ), 10 or 30 mg/kg) was “over 3000 ng/mL”.
